Data published in patent US4477664A, “Novel 1-(4-piperidiniobenzyl)-2,3-dioxopiperazine derivatives or acid addition salts thereof” (Toyama Chemical Co., Ltd., priority 1979, dated 1984).
Values after ≈ are worked out from the molar mass of the structure shown.

How the values were obtained:
HeLa S3 cells = experiment: MIC value against HeLa S3 cells (microplate method); format: cell-based; settings: Homo sapiens, 96 h, 2×10^4 cells/ml, 4 days, Giemsa staining
Source text: (§1) a. MIC value against HeLa S3 cells and Ehrlich cells (microplate method) Number of cells: 2×10^4 cells/ml Culture medium: Eagle's MEM+20% calf embryonic serum Culture time: 4 days Judgement: Giemsa staining

[1] = tested on: Ehrlich ascites carcinoma cells; experiment: Effect on Ehrlich carcinoma (i): intraperitoneal inoculation, mean survival days; format: in vivo, ICR-strain mice; settings: Mus musculus, ip, 168 h, once a day for 7 days, read-out: T/C (mean survival days)
Description: (i) Ehrlich ascites carcinoma cells (1×10^6 cells/head) were inoculated intraperitoneally into ICR-strain mice (female, 6 to 7 weeks old, each group consisting of 5 or 4 mice), and after 24 hours, the […] The effect thereof was judged from the mean survival days.
The test drugs were used in the form of a solution or suspension in a saline solution or a 0.3% carboxymethyl cellulose-containing saline solution. [formula]

Ehrlich cells = experiment: MIC value against Ehrlich cells (microplate method); format: cell-based; settings: 96 h, 2×10^4 cells/ml, 4 days, Giemsa staining
Source text: as §1

L-1210 ascites cells = experiment: Effect on L-1210 leukemia (i): intraperitoneal inoculation, mean survival days; format: in vivo, BDF1-strain mice; settings: 50 mg/kg, 7 administrations
Description: (i) L-1210 ascites cells (1×10^5 cells/head) were inoculated intraperitoneally into BDF1 -strain mice (female, 6 weeks old, each group consisting of 4 mice), and after 24 hours, the intraperitoneal administration of a test drug was started and effected once a day. The effect thereof was judged from the mean survival days. The test drug was used in the form of a solution or suspension in a saline solution or a 0.3% carboxymethyl cellulose-containing saline solution.
T/C was calculated in the same manner as in above b (i).

Acute toxicity = settings: mouse, in vivo, ip; intraperitoneal, once, male mice, observed for 7 days
Source text: The test drugs were used in the form of a solution or suspension in a saline solution or a 0.3% carboxymethyl cellulose-containing saline solution.

[2] = tested on: Ehrlich ascites carcinoma cells; experiment: Effect on Ehrlich carcinoma (ii): subcutaneous inoculation at inguinal region, mean tumor weight; format: in vivo, ICR-strain mice; settings: intraperitoneally, once a day for 5 days, judgement day 13
Description: (ii) Ehrlich ascites carcinoma cells (4×10^6 cells/head) were inoculated subcutaneously at the inguinal region into ICR-strain mice (female, 6 to 7 weeks old, each group consisting of 5 or 4 mice), and after 24 hours, the intraperitaneal or oral administration of a test drug was started and effected once a day for 5 days. The effect thereof was judged from the mean weight of tumor on the 13th or 15th day, respectively.
The test drug was used in the form of a solution or suspension in a saline solution or a 0.3% carboxymethyl cellulose-containing saline solution. [formula]

SMILES | MIC (HeLa S3 cells) [µg/mL] | MIC (Ehrlich cells) [µg/mL] | also measured
CCCCCCN1CCN(Cc2ccc(NCc3ccncc3)cc2)C(=O)C1=O [Compound 35] | 6.25 (≈ 15.8 µM) | 6.25 (≈ 15.8 µM) | response vs control in vivo at 50 mg/kg ([1]; 50 mg/kg): 146%; response vs control in vivo at 100 mg/kg [1]: > 187%
CCN(CC)c1ccc(CN2CCN(Cc3cnc(Cl)nc3Cl)C(=O)C2=O)cc1 [Compound 36] | 12.5 (≈ 28.6 µM) | 12.5 (≈ 28.6 µM) | response vs control in vivo at 40 mg/kg [1]: > 190%; response vs control in vivo at 100 mg/kg [1]: 204%
CC=CC=CCN1CCN(Cc2ccc(N(CC)CC)cc2)C(=O)C1=O [Compound 27] | 6.25 (≈ 17.6 µM) | 6.25 (≈ 17.6 µM) | 
Cc1cc(Nc2ccc(CN3CCN(Cc4ccccc4)C(=O)C3=O)cc2)ncc1N [Compound 43] | < 0.05 | < 0.05 | T/C (mean survival days) (L-1210 ascites cells): 143%; LD50 at 168 h (Acute toxicity): > 200 mg/kg
CCCCCCN1CCN(Cc2ccc(Nc3cnccn3)cc2)C(=O)C1=O [Compound 21] | 1.56 (≈ 4.09 µM) | 1.56 (≈ 4.09 µM) | 
CCCCCCN1CCN(Cc2ccc(N(CC)CC)c(C)c2)C(=O)C1=O [Compound 29] | 12.5 (≈ 33.5 µM) | 12.5 (≈ 33.5 µM) | response vs control in vivo at 100 mg/kg [1]: 184%
O=C1C(=O)N(Cc2ccc(Nc3ncccn3)cc2)CCN1Cc1ccc(Cl)cc1 [Compound 16] | 1.56 (≈ 3.7 µM) | 1.56 (≈ 3.7 µM) | 
CCN(CC)c1ccc(CN2CCN(Cc3ccccn3)C(=O)C2=O)cc1 [Compound 38] | 25 (≈ 68.2 µM) | 25 (≈ 68.2 µM) | response vs control in vivo at 100 mg/kg [1]: 160%
O=C1C(=O)N(Cc2ccc(Nc3ccccn3)cc2)CCN1Cc1ccc(Nc2ccccn2)cc1 [Compound 24] | 3.13 (≈ 6.54 µM) | 3.13 (≈ 6.54 µM) | 
O=C1C(=O)N(c2ccccc2)CCN1Cc1ccc(Nc2ncccn2)cc1 [Compound 12] | 0.78 (≈ 2.09 µM) | 0.78 (≈ 2.09 µM) | LD50 at 168 h (Acute toxicity): > 500 mg/kg
CCCCCCN1CCN(Cc2ccc(N(CC)CC)cc2)C(=O)C1=O [Compound 26] | 3.13 (≈ 8.71 µM) | 3.13 (≈ 8.71 µM) | T/C (mean tumor weight) ([2]; 6.25 mg/kg): 64%; T/C (mean tumor weight) ([2]; 12.5 mg/kg): 67%; T/C (mean tumor weight) ([2]; 25 mg/kg): 61%; response vs control in vivo at 40 mg/kg [1]: 157%
CCCCCCN1CCN(Cc2ccc(N3CCCCC3)cc2)C(=O)C1=O [Compound 31] | 3.13 (≈ 8.42 µM) | 3.13 (≈ 8.42 µM) | 
O=C1C(=O)N(CC2CCCCC2)CCN1Cc1ccc(Nc2ncccn2)cc1 [Compound 11] | 1.56 (≈ 3.96 µM) | 1.56 (≈ 3.96 µM) | 
COC(=O)c1ccc(CN2CCN(Cc3ccc(Nc4ncccn4)cc3)C(=O)C2=O)cc1 [Compound 17] | 6.25 (≈ 14 µM) | 6.25 (≈ 14 µM) | 
CCCCCCN1CCN(Cc2ccc(NCC)cc2)C(=O)C1=O [Compound 32] | 6.25 (≈ 18.9 µM) | 6.25 (≈ 18.9 µM) | 
CCCCCCN1CCN(Cc2ccc(NC(C)C)cc2)C(=O)C1=O [Compound 33] | 0.78 (≈ 2.26 µM) | 0.78 (≈ 2.26 µM) | 
CCCCCCN1CCN(Cc2ccc(Nc3ccncn3)cc2)C(=O)C1=O [Compound 19] | 1.56 (≈ 4.09 µM) | 1.56 (≈ 4.09 µM) | LD50 at 168 h (Acute toxicity): > 500 mg/kg
CC(c1ccccc1)N1CCN(Cc2ccc(Nc3ncccn3)cc2)C(=O)C1=O (centres unmarked) [Compound 18] | 3.13 (≈ 7.8 µM) | 6.25 (≈ 15.6 µM) | 
CCN(CC)c1ccc(CN2CCN(Cc3cccnc3)C(=O)C2=O)cc1 [Compound 39] | 25 (≈ 68.2 µM) | 25 (≈ 68.2 µM) | response vs control in vivo at 100 mg/kg [1]: > 164%
O=C1C(=O)N(Cc2ccc(Nc3ncccn3)cc2)CCN1CCCc1ccccc1 [Compound 15] | 1.56 (≈ 3.75 µM) | 1.56 (≈ 3.75 µM) | LD50 at 168 h (Acute toxicity): > 500 mg/kg
